{"source": "patent US20090186915A1", "about": "“Compositions and methods for treatment of glioblastoma, gliosarcoma, NSCLC, and head and neck cancer” (Unibioscreen S. A., priority 2006, published 2009)", "key": {"Hs683": {"test_system": "Hs683", "test": "MTT colorimetric assay, Hs683 cells", "assay_type": "cell-based", "settings": "Homo sapiens, Hs 683, 72 h, 3 days of culturing, mean of six determinations, read-out: IC50 (μM) In Vitro Growth Inhibition", "procedure": "The overall growth of human cancer cell lines was determined by means of the calorimetric MTT (3-[4,5-dimethylthiazol-2-yl]-diphenyl tetrazolium bromide; Sigma) assay, as detailed previously."}, "PC-3": {"test_system": "PC-3", "test": "Cell cycle kinetics by flow cytometry (PI), PC-3", "assay_type": "cell-based, human", "procedure": "The cell cycle kinetics of prostate cancer cells left untreated or incubated with UNBS5162 were determined by flow cytometry analysis of propidium iodide (PI) nuclear staining, using previously detailed methodology. Each sample was evaluated in triplicate. Flow cytometry was undertaken using an Epics XL.MCL flow cytometer and the FACScan/CellQuest software system (Becton Dickinson, Miami, Fla.)."}, "[1]": {"test_system": "ets homologous factor (EHF)", "test": "EHF mRNA by quantitative RT-PCR, DU-145", "assay_type": "cell-based, human", "procedure": "Reverse transcription reactions were carried out in a thermal cycler (Thermocycler; Westburg, Leusden, The Netherlands). The purification of the cDNAs produced was undertaken using the High Pure PCR Product Purification Kit (Roche Diagnostics, Mannheim, Germany) in accordance with the manufacturer's instructions. Quantitative PCR reactions were performed with 50 ng of purified cDNA in a LightCycler thermocycler instrument (Roche Diagnostics) using LCFastart DNA Master SYBR Green 1 (Roche Diagnostics). After amplification, data analysis was carried out by means of the “Fit points” algorithm of the LightCycler quantification software. A standard curve enabled cDNA quantification of samples to be effected. The primers used were provided by Invitrogen and selected using the HYBSIMULATOR software (Advanced Gene Computing Technology, Irvine, Calif.). The primers used were as follows: ets homologous factor (EHF): forward: 5′-[…]-3′; reverse: 5′-CGAACTCTTGGAAAGGGA-3′; E2F1: forward: 5′-[…]-3′; reverse: 5′-GGATGTGGTTCTTGGACTT-3′."}}}
{"compound": "CN(C)CCN1C(=O)c2cccc3cc(NC(N)=O)cc(c23)C1=O", "note": "[UNBS5162, N-{2-[2-(dimethylamino)ethyl]-1,3-dioxo-2,3-dihydro-1H-benzo[de]isoquinolin-5-yl}urea]", "values": [{"measurement": "IC50", "setting": "Hs683", "result": 8.5, "unit": "µM"}, {"measurement": "cell cycle kinetics", "setting": "PC-3; 1 μM", "result": "did not significantly (P>0.05) modify"}, {"measurement": "cell cycle kinetics, G2 block", "setting": "PC-3; 10 μM for 72 hours", "result": "markedly blocked PC-3 cells in their G2 cell cycle phase"}, {"measurement": "cell cycle kinetics", "setting": "PC-3; chronic 1 μM for 5 days (5×1) or 3 weeks (3w1)", "result": "did not notably modify PC-3 cell cycle kinetics"}, {"measurement": "EHF mRNA expression", "setting": "[1]; 1 μM", "result": "markedly decreased EHF mRNA expression in a transient manner"}, {"measurement": "EHF mRNA levels", "setting": "[1]; 10 μM, 72 hours after treatment", "result": "marked sustained decrease in EHF mRNA levels"}]}
